Data set [1] relates to tibial growth plate. In words: Estrogen-induced growth plate senescence in Cxxc5+/+ and Cxxc5−/− mice. The data set is classed as in vivo, mouse. The conditions noted are these: E2 cypionate 70 μg/kg i.m. once a week for 3 wk. Here is the method:
Figure 2. The effects of estrogen on CXXC5 expression and the mediation of growth plate senescence. (A) Immunoblotting (upper) and quantitative analyses (mean ± SEM, n = 3) (lower) in C28/I2 cells treated with 100 nM E2 (17β-estradiol) for 0, 1, 3, 6, 24, 48, or 72 h. (B) Immunocytochemical staining (left) and quantitative analyses of the fluorescent intensity (mean ± SEM, n = 3; t test, **P < 0.005 and ***P < 0.0005) (right) in C28/I2 cells treated with 100 nM E2 for 40 h. Scale bars, 100 μm. (C–E) Tibial organ cultures (E15.5) incubated with 100 nM E2 for 6 d. Representative images at 6 d (C, left) and quantitative analyses of the growth changes (mean ± SEM, n = 5; t test, ***P < 0.0005) (C, right). Scale bar, 1 mm. H&E staining (D, left) and quantification of each zone height (mean ± SEM, n = 5; t test, *P < 0.05 and **P < 0.005) (D, right) in the growth plate. Scale bar, 200 μm. IHC analyses of β-catenin and CXXC5 (E). Scale bars, 50 μm. (F) 3-wk-old Cxxc5^+/+ and Cxxc5^−/− mice were treated with E2 cypionate (70 μg/kg) by i.m. injection once a week for 3 wk (n = 3–4). Representative images of H&E staining and IHC analyses for BrdU, β-catenin, and CXXC5 in the growth plates of proximal tibiae are shown. The area within the dashed lines indicates the growth plate zone. Black and white scale bars, 50 μm. Yellow scale bar, 20 μm. RZ, resting zone; PZ, proliferative zone; HZ, hypertrophic zone. […]

In data set [2] the target is T1, CXXC5–DVL interaction (Homo sapiens, UniProt O14640).
T1 sequence (O14640 251-340 limits assumed): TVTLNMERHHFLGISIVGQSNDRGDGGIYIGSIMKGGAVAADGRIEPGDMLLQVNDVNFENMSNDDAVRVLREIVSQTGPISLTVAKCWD
As to the kind of experiment: In vitro CXXC5–DVL binding assay (FITC-tagged PTD-DBMP on DVL PDZ domain). The conditions noted are these: dose–response curve, n = 3. Here is the method:
After the addition of 10 μM FITC-tagged PTD-DBMP to each well, each compound in the chemical library or control (DMSO) was treated to the well at a final concentration of 30 μM. The fluorescence intensity was measured using a Fluorstar Optima microplate reader (BGM Lab Technologies, Ortenberg, Germany). The binding values were calculated as a percent ratio of the fluorescent intensity normalized to the DMSO-treated control.

A short description of data set [3]: In vivo pharmacokinetics of KY19382. The conditions noted are these: SD male rat; for AUC(0-t): 0 to 24 hour. Here is the method:
Animal studies were approved by the Institutional Animal Care and use committee at KRIBB. Briefly, specific pathogen-free male Sprague−Dawley (SD) rats (10 weeks old, body weight 298−315 g), purchased from Koatech Co. […] Dosing solutions were prepared in dimethylacetamide (DMAC)/polyethylene glycol 400 (PEG400) (20/80, v/v %) for administrations, and administered at dosing volumes of 5 and 10 ml/kg for iv and ip, respectively. A 100 μl aliquot of each plasma sample was prepared, and three volumes of ice-cold acetonitrile containing carbamazepine (internal standard) were added. The mixture was centrifuged at 910 g for 10 minutes, and the supernatant was subjected to LC−MS/MS analysis. Pharmacokinetic parameters were calculated by standard noncompartmental analysis of plasma concentration−time profiles using Kinetica 4.4.1 (Thermo Fisher Scientific, Inc., Woburn, MA, USA). The areas under the plasma concentration−time curves (AUC) were calculated by the linear−trapezoidal method. Systemic plasma clearance (CLP) was calculated as follows: CLP = dose/AUCinf. Terminal elimination half-life (t1/2) was calculated by the following equation: t1/2 = 0.693/λZ where λZ is the terminal disposition rate constant. Volume of distribution at steady state (VSS) was calculated as follows: VSS = dose × AUMCinf/(AUCinf)^2, where AUMCinf is the area under the first moment of the plasma concentration−time curve extrapolated to infinity. Bioavailability (F) was calculated as follows: F (%) = (AUCip/AUCiv)(doseiv/doseip) × 100.
Pharmacokinetic parameters were based on the mean plasma concentration-time profiles of SD male rat (n=3). Pharmacokinetic parameters were obtained by non-compartmental analysis of the plasma concentration-time profiles using KineticaTM 4.4.1 (Thermo Fisher Scientific, Inc., Woburn, MA, USA). AUClast was calculated from 0 to 24 hour. IV, intravenous; IP, intraperitoneal; Tmax, Time to maximum plasm concentration; Cmax, Maximum plasma concentration after intraperitoneal injection; AUC, Area under the curve; CL, clearance; Vss, Volume of distribution at steady state; T1/2, Elimination half-life; F, bioavailability.

Where [4] appears, read: Sprague-Dawley, plasma, IP, 5 mg/kg, mean.
Setting [5] is: Sprague-Dawley, plasma, IV, 1 mg/kg, mean.

We go through two compounds from paper PMC6458850, “CXXC5 mediates growth plate senescence and is a target for enhancement of longitudinal bone growth” (Life Science Alliance, 2019).

The IC50 is the midpoint of a concentration-inhibition curve. Low readings indicate greater potency, high ones weaker potency. In general, bioavailability refers to the share of a dose that reaches the circulation, judged against a reference dose that is usually intravenous. By Cmax is commonly meant the highest concentration seen after dosing. By Tmax is commonly meant the time at which the peak concentration occurs. Broadly, the half-life is the time in which the quantity being followed falls by half. A low value points to fast loss. The term AUC(0-t) denotes exposure summed from dosing to a finite time, without extrapolation to infinity. Read a high AUC(0-t) as high exposure. For orientation: clearance means the rate of elimination divided by the concentration. Low readings indicate a low capacity for elimination, high ones a high capacity for elimination.

Regarding `C[C@]12CC[C@@H]3c4ccc(O)cc4CC[C@H]3[C@@H]1CC[C@@H]2O` [E2, 17β-estradiol], the “structural senescence of the tibial growth plate” value in data set [1] is on record as “hardly observed”.

With `CON=C1C(=C2C(=O)Nc3cc(Cl)c(Cl)cc32)Nc2ccccc21` [KY19382, 5,6-dichloroindirubin-3′-methoxime], in data set [2], the IC50 was found to be 0.019 µM. For the same compound, in data set [3] (IP, 5 mg/kg, mean), the CL stood at 7.83 mL/min/kg. Besides, the bioavailability in data set [3] (Sprague-Dawley, plasma, intraperitoneal, IP 5 mg/kg vs IV 1 mg/kg, read-out: F (intraperitoneal bioavailability)) worked out at 16.7%. For the same compound, in data set [3] (setting [4]), the concentration peaked (Cmax) at 463 ng/mL, the Tmax was 1 h, the half-life is 16.2 h and the exposure AUC(0-t) is 6560 ng·h/mL. In data set [3] (setting [5]), the clearance is 2 mL/min/kg, the half-life was 3.33 h and the area under the curve AUC(0-t) is 7830 ng·h/mL. Further, in data set [3] (Sprague-Dawley, plasma, IV, 1 mg/kg, mean, read-out: Vss), the Vd was found to be 0.33 L/kg.
